Reference: publication PMC7684578, “Isopedopeptins A–H: Cationic Cyclic Lipodepsipeptides from Pedobacter cryoconitis UP508 Targeting WHO Top-Priority Carbapenem-Resistant Bacteria” (ACS Chemical Biology, 2020)
Starred links: 1 amine or outer side, 2 acyl side, 3 side chain; linkers in the order of their positions; H or OH if unused. Positions of bridges follow the written chain, without caps; N, C: chain ends. Non-standard residues stand in square brackets, D forms with d. Residues, ends and D or L forms follow the SMILES beside them. X4 = CC(C)CCC=CCCC[C@H](CC(=O)[*:1])O[*:2]; X6 = CC(C)CCCCC=CC[C@H](CC(=O)[*:1])O[*:2]; X5 = CC(C)CCCCCCC[C@H](CC(=O)[*:1])O[*:2]; X3 = CC(C)CCCCC[C@H](CC(=O)[*:1])O[*:2]; X7 = CCCCCCC=CC[C@H](CC(=O)[*:1])O[*:2]; X2 = CCCCCCC[C@H](CC(=O)[*:1])O[*:2]; Val(3-OH) = CC(C)(O)[C@H](N)C(=O)O; X1 = C/C=C(/N[*:1])C(=O)[*:2]; Dab = NCC[C@H](N)C(=O)O; Dap = NC[C@H](N)C(=O)O

Experiment: in vitro
Assay type: cell-based
Conditions: human, pH 7.4, Hemolysis (%)
Description: positive control (Bortezomib) SI of <5%. The half maximal inhibitory concentration (IC50) was determined from log concentration-effect curves using non-linear regression analysis.
Frequency of resistance (FoR). For the determination of the FoR, the MIC of compound 2 was first evaluated on solid MH-agar medium prepared in 35 mm diameter plates. Each plate contained 4 mL agar with the appropriate amount of compound. Bacterial cultures were grown and prepared as described for the MIC assay. 13 µL of bacterial culture diluted to 0.5 MacFarland was inoculated into 1 mL 0.9% NaCl resulting in ~2 × 10^6 CFU/mL. 5 µL of this bacterial suspension was spotted onto the surface of each agar plate (~10^4 CFU/spot). Plates were sealed and incubated at 37°C for 18–20 hours. Agar MIC was recorded according to CLSI guidelines as the lowest concentration of […]
faint haze caused by the inoculum. Then 9 cm plates were prepared with 25 mL MHII agar medium containing 4 × or 8 × solid MIC concentrations of test compounds and seeded with 100 µL of a bacterial preparation, concentrated by centrifugation from overnight cultures and resuspended in 0.9% NaCl, corresponding to 108 CFU and 109 CFU per plate, and spread on the agar using 4–5 glass beads of 4 mm diameter. Since CFU were evaluated using the McFarland turbidity standard, the exact CFU number plated was evaluated by plating of serial dilutions of each inoculum preparation on MHII agar plates. Plates were incubated at 37°C and colonies were counted at 24 h and 48 h post-plating. The frequencies of resistance were then calculated by counting the number of validated resistant colonies growing on antibiotic preparations divided by the evaluated number of CFU in the inoculum.
Hemolysis assay. Compounds were evaluated for hemolytic activity using red blood cells from heparinized human blood. Red blood cells (RBC) were washed three times in Tyrode buffer (130 mM NaCl, 4 mM KCl, 2.8 mM NaOAc, 1 mM MgCl2, 10 mM HEPES, 10 mM glucose, 1 mM CaCl2, adjusted to pH 7.4) and resuspended in the same buffer. Final concentrations in the hemolysis assay were: 100 µM compound, 1% DMSO, and 50% RBC, assayed in a 200 µL volume in a microtiter plate. The mixture was incubated at 37 °C for 45 min with shaking (250 rpm). After incubation, RBCs were removed by centrifugation (1000 × g for 10 min), 100 µL clear plasma was transferred to a fresh microtiter plate, and the amount of hemoglobin measured using a spectrophotometer at 540 nm. The […]
complete lysis control contained 2% Triton X-100 (in Tyrode buffer) instead of compound; the negative control contained Tyrode buffer but no compound. Percent hemolysis was calculated as:
[Abs compound] - [Abs negative control] / [Abs complete lysis control] - [Abs negative control] ×
100. Values greater than 1% hemolysis at 100 µM were regarded as a red flag.
Bacterial membrane permeabilization assay. Liposomes were manufactured and permeabilization assayed as described previously.8 Briefly, dry lipid films of E. coli polar lipid extract were formed on round-bottom flask walls. This was achieved by dissolving lipids in chloroform and evaporating the solvent under agitation and nitrogen gas flow, followed by incubation in vacuum chamber. Lipid films were re-suspended by 30 min stirring (E. coli) at 55°C in an aqueous solution of 100 mM 5(6)-carboxyfluorescein in 10 mM Tris buffer (set to pH 7.4 at 37°C). Suspensions were subjected to repeated extrusion through a 100 nm pore size polycarbonate membrane in order to reduce multilamellar structures and polydispersity. Un-trapped carboxyfluorescein was removed by gel filtration. Membrane permeability was measured by monitoring carboxyfluorescein efflux from the liposomes to the external low concentration environment, resulting in loss of self-quenching and an increased fluorescence signal. The 96-well plates were prepared with a 2-fold serial dilution of the samples in Tris buffer, as well as negative controls (background) and 0.16% Triton X-100 (maximum […]
leakage). […]
Compound `C/C=C1/NC(=O)[C@H](CCN)NC(=O)[C@H](CC(C)C)NC(=O)[C@H](CN)NC(=O)C[C@@H](CCCCCCCC(C)C)OC(=O)[C@H](CC(=O)O)NC(=O)[C@H](C(C)(C)O)NC(=O)[C@@H](Cc2ccccc2)NC(=O)[C@H](CN)NC(=O)[C@H]([C@@H](C)O)NC1=O` [Compound 6, Isopedopeptin F] ([Dap]L[Dab][X1]T[Dap][dF][Val(3-OH)]D; linker N-C via X5) has a hemolysis at 45 min, 100 µM of 27.5%. Compound `C/C=C1/NC(=O)[C@H](CCN)NC(=O)[C@H](CC(C)C)NC(=O)[C@H](CN)NC(=O)C[C@@H](CC=CCCCCCC)OC(=O)[C@H](CC(=O)O)NC(=O)[C@H](C(C)(C)O)NC(=O)[C@@H](Cc2ccccc2)NC(=O)[C@H](CN)NC(=O)[C@H]([C@@H](C)O)NC1=O` [Compound 3, isopedopeptin C] ([Dap]L[Dab][X1]T[Dap][dF][Val(3-OH)]D; linker N-C via X7) has a hemolysis at 45 min, 100 µM of 3%. With `C/C=C1/NC(=O)[C@H](CCN)NC(=O)[C@H](CC(C)C)NC(=O)[C@H](CN)NC(=O)C[C@@H](CCCCCCC)OC(=O)[C@H](CC(=O)O)NC(=O)[C@H](C(C)(C)O)NC(=O)[C@@H](Cc2ccccc2)NC(=O)[C@H](CN)NC(=O)[C@H]([C@@H](C)O)NC1=O` [Compound 2, isopedopeptin B] ([Dap]L[Dab][X1]T[Dap][dF][Val(3-OH)]D; linker N-C via X2) the hemolysis at 45 min, 100 µM was under 0.8%. `C/C=C1/NC(=O)[C@H](CCN)NC(=O)[C@H](CC(C)C)NC(=O)[C@H](CN)NC(=O)C[C@@H](CCCC=CCCC(C)C)OC(=O)[C@H](CC(=O)O)NC(=O)[C@H](C(C)C)NC(=O)[C@@H](Cc2ccccc2)NC(=O)[C@H](CN)NC(=O)[C@H]([C@@H](C)O)NC1=O` [Compound 7, Isopedopeptin G] ([Dap]L[Dab][X1]T[Dap][dF]VD; linker N-C via X4) showed a hemolysis at 45 min, 100 µM of 14.1%. With `C/C=C1/NC(=O)[C@H](CCN)NC(=O)[C@H](CC(C)C)NC(=O)[C@H](CN)NC(=O)C[C@@H](CC=CCCCCC(C)C)OC(=O)[C@H](CC(=O)O)NC(=O)[C@H](C(C)C)NC(=O)[C@@H](Cc2ccccc2)NC(=O)[C@H](CN)NC(=O)[C@H]([C@@H](C)O)NC1=O` [Compound 8, Isopedopeptin H] ([Dap]L[Dab][X1]T[Dap][dF]VD; linker N-C via X6) the hemolysis at 45 min, 100 µM was 52.3%. With `C/C=C1/NC(=O)[C@H](CCN)NC(=O)[C@H](CC(C)C)NC(=O)[C@H](CN)NC(=O)C[C@@H](CCCCCCC)OC(=O)[C@H](CC(=O)O)NC(=O)[C@H](C(C)C)NC(=O)[C@@H](Cc2ccccc2)NC(=O)[C@H](CN)NC(=O)[C@H]([C@@H](C)O)NC1=O` [Compound 4, isopedopeptin D] ([Dap]L[Dab][X1]T[Dap][dF]VD; linker N-C via X2) the hemolysis at 45 min, 100 µM was 9.1%. In the case of `C/C=C1/NC(=O)[C@H](CCN)NC(=O)[C@H](CC(C)C)NC(=O)[C@H](CN)NC(=O)C[C@@H](CCCCCC(C)C)OC(=O)[C@H](CC(=O)O)NC(=O)[C@H](C(C)(C)O)NC(=O)[C@@H](Cc2ccccc2)NC(=O)[C@H](CN)NC(=O)[C@H]([C@@H](C)O)NC1=O` [Compound 1, cyclo(3-hydroxy-9-methyldecanoyl-DAPA1-Leu-DABA-ABA-Thr-DAPA2-Phe-OHVal-Asp)] ([Dap]L[Dab][X1]T[Dap][dF][Val(3-OH)]D; linker N-C via X3), the hemolysis at 45 min, 100 µM is reported as 4.2%. `C/C=C1/NC(=O)[C@H](CCN)NC(=O)[C@H](CC(C)C)NC(=O)[C@H](CN)NC(=O)C[C@@H](CCCCCC(C)C)OC(=O)[C@H](CC(=O)O)NC(=O)[C@H](C(C)C)NC(=O)[C@@H](Cc2ccccc2)NC(=O)[C@H](CN)NC(=O)[C@H]([C@@H](C)O)NC1=O` [Compound 5, Isopedopeptin E] ([Dap]L[Dab][X1]T[Dap][dF]VD; linker N-C via X3) showed a hemolysis at 45 min, 100 µM of 5.2%.
